Assays:
pig bladder tissue [1] = experiment: Uptake of docetaxel or paclitaxel into pig bladder tissue from EGCG or tannic acid solutions (Franz cells); format: in vitro ADME; conditions: drug 200 microg/ml in EGCG or tannic acid at 50 mg/ml, urothelial side, 2 hours
Procedure: Methods: Fresh ex vivo pig bladders were cut into 2 cm diameter pieces and laid on franz diffusions cells. […] The solutions were then made up in tyrodes buffer pH 7.4 and 400 ul was placed on the urothelial side of the tissue for 2 hours. The tissues were then frozen and cryosectioned for radioactivity counting by liquid scintillation methods.

pig skin = system: pig skin
Procedure: Various gallate-containing drug formulations were prepared and applied to ex vivo pig skin samples. Fresh pig skin was obtained from a local butcher, processed within three hours and then frozen. For experiments, the skin was slowly thawed, excess fat removed from the base, and cut into 1×2 cm squares. These squares were mounted and clamped on Franz diffusion cells, which kept the tissue moist and isolated and exposed a 6 mm diameter of the upper skin surface for the application of a drug loaded formulation. Skin samples were then frozen and later cryosectioned in 50 μm slices. The drug in the slices was extracted and measured by HPLC or radioactive doping methods. A drug depth profile was then established for each drug.
1. Formulations containing a drug and a gallate. The drugs were dissolved in ethanol at various concentrations along with either EGCG or TA (500 mg/mL). Each solution was pipetted into 6×5 mm diameter aluminum cups (approximately 3 mm in height) by filling and allowing the ethanol to evaporate at 50° C. until all the solution was used up (80 mg per cup).
2. Formulations containing a drug, propylene glycol (“PG”) and a gallate. 300 mg of propylene glycol was mixed with 200 mg of EGCG or TA until dissolved. Various amounts of drug were added to this mixture and dissolved. 80 mg of the resulting viscous solution was weighed into 6×5 mm aluminum cups.
3. Control Formulations. Control formulations were prepared using Glaxal base and Plogel. Glaxal base is a cream used by compounding pharmacists to manufacture topical formulations of drugs. Plogel is an alternative used for dermal formulations. […] Drug was added to a known weight of Glaxal or Plogel and levigated to produce a standard drug dispersion. These formulations were prepared the evening before the experiment. For some drugs, radioactive drug (where available) was also added as a doping additive to facilitate quantitation in tissues.
Eutectics: In some cases, gallate containing compounds and drugs were formulated in eutectic mixtures. These included a 60:40 (% w/w) mixture of menthol with ibuprofen. These agents acted as a carrier for retinoic acid, which was then dissolved in this liquid. The 3-drug eutectic/solution was then blended into the CMC/poloxamer emulsion containing EGCG (2.5%). […] The emulsion was stabilized with poloxamer.
Example 29. Pig skin studies. Aluminum cups containing drug formulations were inverted on top of the pig skin in the Franz diffusion cell so that the formulation contents were in contact with the skin. […]
Analysis. […] The amount of drug in each group of skin sections was then determined using HPLC methods, or by radioactivity counting on a liquid scintillation counter. The amount of drug in each group of skin sections was expressed as μg/g or mg/g of tissue.

[2] = system: Human umbilical vein endothelial cells (HUVEC); experiment: Accumulation of docetaxel in HUVEC cells and effect of ultrasound; format: cell-based
Source text: Human umbilical vein endothelial cells (HUVEC) and the associated culture media were obtained from Lonza Chemicals (Basel, Switzerland). All cells were applied to 48 well plates in respective media at a concentration of 5000 cells per well or filter. The cells were allowed to equilibrate for 3 days at which time they became approximately 80% confluent. In the 48 well plates, only 24 wells were used per plate so that wells with cells appeared in a checkerboard pattern.
After 2 days, cells were ready for drug incubation with or without ultrasound treatment. The drug solutions (including radiolabelled docetaxel) were applied to the cells (0.5 ml) for 2 hours. Some cells were then ultrasonicated. Briefly, cells received a single 10-s burst of ultrasound at 4 MHz with a power density of 30 W/cm^2.
After ultrasound treatment, the drug solution was immediately removed and all cells were washed three times with 500 ul of HBSS. The amount of docetaxel retained in the cells was determined by lysing the cells in 200 ul of lysis buffer (2% Triton X100 containing 33% DMSO) and quantitation by liquid scintillation counting.

[3] = Drug release from injectable PG:gallate pastes (60:40) into PBS; format: physicochemical; conditions: 60:40 PG:EGCG or PG:tannic acid, 2% w/w drug, PBS pH 7.4, 37° C.
Procedure: Methods: 60:40% w/w PG:EGCG or PG:tannic acid was used in these studies. 588 mg of propylene glycol was weighed into a 20 mL glass vials and 392 of EGCG or tannic acid was added followed by vortexing to distribute and dissolve the gallates. The vials were warmed to 60° C. and vortexed until all the contents were in solution. At this time 20 mg of drug was added (2% w/w) and vortexed until in solution. The following drugs were used: paclitaxel, docetaxel, retinoic acid, amphotericin B, and curcumin. 100 mg of each paste was weighed into the base of a 15 mL glass test tube and 10 mL of phosphate buffered saline was added at pH 7.4 and the tubes were incubated at 37° C. for certain times. All 10 mL of the PBS release media was removed and 1 mL analyzed by HPLC for drug content. 10 mL of fresh PBS was then added to all tubes

pig bladder tissue [4] = experiment: Uptake of paclitaxel or docetaxel into pig bladder tissue from triblock or diblock copolymer-MEPEG pastes; format: in vitro ADME; conditions: EGCG or tannic acid loaded triblock copolymer paste, perivesicular side, 2 hours
Source text: Methods: Fresh ex vivo pigs bladders were cut into 2 cm diameter pieces and laid on franz diffusions cells. […] The synthesis of the diblock copolymer is described in example X and is composed of a MEPEG molecule of 2000 molecular weight with polylactic acid at a molecular weight of 1330. The triblock copolymer was synthesized in house and has a composition of 35/35/30 (polycaprolactone, polylactic acid, polyethylene glycol with a total molecular weight of 4600. The triblock was synthesized by heating a mixture of caprolactone (Sigma chemicals) lactic acid (Polysciences) and Polyethylene glycol (Sigma molecular weight 1380) to 120° C. under nitrogen overnight followed by cooling and washing in hexane or cold ethanol. 100 mg of paste was applied to the perivascular side of the bladder tissue and 200 ul of tyrodes buffer pH 7.4 was added. The tissue was incubated for 2 hours at 37° C. and then the diffusion cell was disassembled, the tissue was washed free of remaining paste with excess tyrodes and the tissues were then frozen and cryosectioned for radioactivity counting by liquid scintillation methods.

[5] = 24 h

Row | SMILES | drug penetration through bladder tissue (pig bladder tissue [1]) | drug uptake by pig skin relative to controls (pig skin) | effect of ultrasound on uptake of drug into cells ([2]; 10-s burst, 4 MHz, 30 W/cm^2, all formulations) | uptake of docetaxel from ECGC formulations relative to micellar formulation ([2]; 2 hours incubation) | drug release from PG:gallate paste [3] | penetration into the bladder tissue (pig bladder tissue [4]) | stability of EGCG solutions of the drug [5] | stability of tannic acid solutions of the drug [5] | drug uptake by pig skin (pig skin)
1 | CC(=O)O[C@@]12CO[C@@H]1C[C@H](O)[C@@]1(C)C(=O)[C@H](O)C3=C(C)[C@@H](OC(=O)[C@H](O)[C@@H](NC(=O)OC(C)(C)C)c4ccccc4)C[C@@](O)([C@@H](OC(=O)c4ccccc4)[C@H]21)C3(C)C [docetaxel] | high levels of drug penetration | higher levels of uptake as compared to the control formulations | increased the uptake | approximately 4 fold | relatively controlled release of the drug over 24 hours | allowed for the penetration | – | – | –
2 | CC(=O)O[C@H]1C(=O)[C@@]2(C)[C@H]([C@H](OC(=O)c3ccccc3)[C@]3(O)C[C@H](OC(=O)[C@H](O)[C@@H](NC(=O)c4ccccc4)c4ccccc4)C(C)=C1C3(C)C)[C@]1(OC(C)=O)CO[C@@H]1C[C@@H]2O [paclitaxel] | high levels of drug penetration | – | – | – | relatively controlled release of the drug over 24 hours | allowed for the penetration | not stable over 24 hours | stable for 24 hours | low levels of drug uptake
